Reference: publication PMC13128454, “Mutant p53 protein accumulation is selectively targetable by proximity-inducing drugs” (Nature Chemical Biology, 2025)
Values joined by “and” are separate entries in the source; they are usually repeats but may differ in a detail not shown here. Identical values can stand only once. Like-named read-outs stand apart in the source and are kept apart here.

Legend:
Type in all cases: cell-based
[1] = tested on: Halo–p53-Y220C ΔTAD–mCherry 293T cells; experiment: cell-cycle analysis (DNA content, DAPI flow cytometry); set-up: 4N / 8N / Right_of_Gate1 (replicates) / Right_of_Gate2 (replicates) / 2N: unit not given here; conditions: Y220C, 1 day
Experimental: Cells were split into a 10-cm dish at low confluency (20%) and grown overnight. Cells were synchronized using overnight treatment with palbociclib (150 nM), washed and split into a six-well plate for treatment with compound for 24 h. Cells were harvested by trypsinization, washed twice with cold 1× PBS, fixed by dropwise addition of ice-cold 70% ethanol while vortexing and incubated overnight (4 °C). Fixed samples were centrifuged at 1,000g for 5 min and 70% ethanol was removed. Cells were washed twice with 1× PBS + 1% BSA before DNA labeling with 1 µg ml^−1 DAPI for 10 min at room temperature, before being analyzed for DNA content by flow cytometry (Beckman CytoFLEX LX).

[2] = tested on: p53 luciferase transcriptional reporter in Huh7 cells; experiment: p53 luciferase reporter assay; conditions: for p53 luciferase reporter signal (normalized), replicates: Huh7
Experimental: (§1) Huh7 and MFE319 cell lines stably expressing a p53 reporter (Addgene, 90363)[59] were generated. Cells were plated in 384-well plates (1,500 cells per well) and treated with varying concentrations of compound. Then, 16 h after treatment, firefly luciferase substrate was added to the cells and luminescence was monitored using an EnVision 2105 multimode plate reader.

[3] = tested on: p53 luciferase transcriptional reporter in MFE319 cells; experiment: p53 luciferase reporter assay; conditions: for p53 luciferase reporter signal (normalized), replicates: MFE319
Experimental: as §1

[4] = CellTiter-Glo cell viability; conditions: human, p53_construct WT, CTG 4 days, read-out: mean (normalized viability)
Experimental: (§2) Cells were plated in 384-well plates (typically 1,500 cells per well) with varying concentrations of compounds, with a total volume of 50 μl per well. CTG reagent was added (25 μl) to the solutions, mixed and read out using an EnVision 2105 multimode plate reader.

[5] = tested on: Halo–p53-Y220C ΔTAD–mCherry 293T cells; experiment: annexin–PI staining; conditions: for P3_avg (P3 = early apoptotic) / P5_avg (P5 = late apoptotic): Cell_Line Y220C, proportion of cells; for avgprop_P3 / avgprop_P4 / avgprop_P5 / avgprop_P2 / P2_viable / P3_AnnexinPos_PIneg / P4_PIpos_AnnexinNeg / P5_PIpos_Annexinpos / prop_P3 / prop_P4 / prop_P5 / prop_P2: Y220C; for avgprop_P3: average proportion AnnexinPos PIneg; for avgprop_P4: average proportion PIpos AnnexinNeg; for avgprop_P5: average proportion PIpos Annexinpos; for avgprop_P2: average proportion viable; for P2_viable / P3_AnnexinPos_PIneg / P4_PIpos_AnnexinNeg / P5_PIpos_Annexinpos: event count; for P2_viable / P3_AnnexinPos_PIneg / P4_PIpos_AnnexinNeg / P5_PIpos_Annexinpos / prop_P3 / prop_P4 / prop_P5 / prop_P2: single replicate; for prop_P3: proportion AnnexinPos PIneg; for prop_P4: proportion PIpos AnnexinNeg; for prop_P5: proportion PIpos Annexinpos; for prop_P2: proportion viable
Experimental: Cells were plated in six-well plates and treated with varying concentrations of compounds for 1 day. Cells were stained with annexin V–AF488 and PI following the manufacturer’s instructions (Thermo Fisher, V13241) and analyzed by flow cytometry (Beckman CytoFLEX LX), using untreated cells to establish gates.

[6] = tested on: 293T cells expressing a dox inducible Halo–p53-Y220C ΔTAD–mCherry; experiment: viability with doxycycline-inducible construct
Experimental: as §2

[7] = viability with doxycycline-inducible construct; conditions: human, read-out: mean_norm (normalized viability)
Experimental: as §2

[8] = Conc 0.38 (unit not given; p53-01 in μM, BI2536 in nM)
[9] = Conc 0.75 (unit not given; p53-01 in μM, BI2536 in nM)
[10] = Conc 1.50 (unit not given; p53-01 in μM, BI2536 in nM)
[11] = Conc 10.00 (unit not given; per b27 BI2536 in nM)

SMILES: CC[C@@H]1C(=O)N(C)c2cnc(Nc3ccc(C(=O)NC4CCN(C)CC4)cc3OC)nc2N1C1CCCC1 [BI2536]
- 2N [1, 8]: 59.64
- 4N [1, 8]: 39.45
- 8N [1, 8]: 0.91
- Right_of_Gate1 (replicates) [1, 8]: 40.36 and 39.92 and 40.00
- Right_of_Gate2 (replicates) [1, 8]: 0.91 and 0.89 and 1.00
- 2N [1, 9]: 59.25
- 4N [1, 9]: 40.16
- 8N [1, 9]: 0.59
- Right_of_Gate1 (replicates) [1, 9]: 40.75 and 40.54 and 40.62
- Right_of_Gate2 (replicates) [1, 9]: 0.59 and 0.51 and 0.57
- 2N [1, 10]: 58.82
- 4N [1, 10]: 40.66
- 8N [1, 10]: 0.52
- Right_of_Gate1 (replicates) [1, 10]: 41.18 and 41.58 and 39.89
- Right_of_Gate2 (replicates) [1, 10]: 0.52 (2×) and 0.50
- 2N [1, 11]: 2.81
- 4N [1, 11]: 3.65
- 8N [1, 11]: 93.54
- Right_of_Gate1 (replicates) [1, 11]: 97.19 and 96.75 and 95.65
- Right_of_Gate2 (replicates) [1, 11]: 93.54 and 93.93 and 86.65
- induction of p53 reporter ([2]; 16 h, PMV6 at doses of 1.25–10 μM): no such effect
- p53 luciferase reporter signal (normalized), replicates ([2]; log Concentration (pM) 1.68867): 1.071 and 1.082 and 0.9754
- p53 luciferase reporter signal (normalized), replicates ([2]; log Concentration (pM) 1.9897): 0.9944 and 0.9877 and 0.9088
- p53 luciferase reporter signal (normalized), replicates ([2]; log Concentration (pM) 2.29073): 0.9631 and 0.9698 and 0.9782
- p53 luciferase reporter signal (normalized), replicates ([2]; log Concentration (pM) 2.59176): 1.0179 and 0.8887 and 0.8977
- p53 luciferase reporter signal (normalized), replicates ([2]; log Concentration (pM) 2.89279): 1.088 and 0.9771 and 0.9776
- p53 luciferase reporter signal (normalized), replicates ([2]; log Concentration (pM) 3.19382): 1.04 and 1.0179 and 1.023
- p53 luciferase reporter signal (normalized), replicates ([2]; log Concentration (pM) 3.49485): 0.8529 and 0.9603 and 1.044
- p53 luciferase reporter signal (normalized), replicates ([2]; log Concentration (pM) 3.79588): 0.8775 and 0.9273 and 0.8786
- p53 luciferase reporter signal (normalized), replicates ([2]; log Concentration (pM) 4.09691): 0.9161 and 0.9032 and 0.92
- p53 luciferase reporter signal (normalized), replicates ([2]; log Concentration (pM) 4.39794): 0.8747 and 0.91 and 0.9648
- p53 luciferase reporter signal (normalized), replicates ([2]; log Concentration (pM) 4.69897): 0.9245 and 0.9167 and 0.9228
- p53 luciferase reporter signal (normalized), replicates ([2]; log Concentration (pM) 5): 0.7964 and 0.863 and 0.8635
- induction of p53 reporter ([3]; 16 h): no induction of luciferase activity
- p53 luciferase reporter signal (normalized), replicates ([3]; log Concentration (pM) 1.68867): 0.8432 and 0.8795 and 0.997
- p53 luciferase reporter signal (normalized), replicates ([3]; log Concentration (pM) 1.9897): 1.008 and 0.9306 and 1.09
- p53 luciferase reporter signal (normalized), replicates ([3]; log Concentration (pM) 2.29073): 0.7831 and 0.9939 and 0.826
- p53 luciferase reporter signal (normalized), replicates ([3]; log Concentration (pM) 2.59176): 1.029 and 1.032 and 0.9459
- p53 luciferase reporter signal (normalized), replicates ([3]; log Concentration (pM) 2.89279): 0.8553 and 0.942 and 1.018
- p53 luciferase reporter signal (normalized), replicates ([3]; log Concentration (pM) 3.19382): 0.956 and 0.9365 and 0.9572
- p53 luciferase reporter signal (normalized), replicates ([3]; log Concentration (pM) 3.49485): 0.8748 and 0.9709 and 0.8007
- p53 luciferase reporter signal (normalized), replicates ([3]; log Concentration (pM) 3.79588): 0.8943 and 0.9669 and 0.8623
- p53 luciferase reporter signal (normalized), replicates ([3]; log Concentration (pM) 4.09691): 0.6004 and 0.8065 and 0.6757
- p53 luciferase reporter signal (normalized), replicates ([3]; log Concentration (pM) 4.39794): 0.6617 and 0.6465 and 0.5696
- p53 luciferase reporter signal (normalized), replicates ([3]; log Concentration (pM) 4.69897): 0.5274 and 0.6902 and 0.6941
- p53 luciferase reporter signal (normalized), replicates ([3]; log Concentration (pM) 5): 0.7269 and 0.634 and 0.6632
- viability at 4 days ([4]; Compound_conc 0.0488281): 97%
- viability at 4 days ([4]; Compound_conc 0.0976562): 111%
- viability at 4 days ([4]; Compound_conc 0.195312): 98.9%
- viability at 4 days ([4]; Compound_conc 0.390625): 103%
- viability at 4 days ([4]; Compound_conc 0.78125): 103%
- viability at 4 days ([4]; Compound_conc 1.5625): 105%
- viability at 4 days ([4]; Compound_conc 3.125): 101%
- viability at 4 days ([4]; Compound_conc 6.25): 80.9%
- viability at 4 days ([4]; Compound_conc 12.5): 64.4%
- viability at 4 days ([4]; Compound_conc 25): 62.4%
- viability at 4 days ([4]; Compound_conc 50): 49.4%
- viability at 4 days ([4]; Compound_conc 100): 42%
- P3_avg (P3 = early apoptotic) ([5]; Concentration 0.75): 0.03538
- P5_avg (P5 = late apoptotic) ([5]; Concentration 0.75): 0.001761
- P3_avg (P3 = early apoptotic) ([5]; Concentration 1.5): 0.08725
- P5_avg (P5 = late apoptotic) ([5]; Concentration 1.5): 0.03439
- avgprop_P3 ([5]; Concentration 0.75): 0.03538
- avgprop_P4 ([5]; Concentration 0.75): 0.005431
- avgprop_P5 ([5]; Concentration 0.75): 0.001761
- avgprop_P2 ([5]; Concentration 0.75): 0.9574
- P2_viable ([5]; Concentration 0.75): 2186 and 2152 and 2185
- P3_AnnexinPos_PIneg ([5]; Concentration 0.75): 74 and 98 and 69
- P4_PIpos_AnnexinNeg ([5]; Concentration 0.75): 7 and 17 and 13
- P5_PIpos_Annexinpos ([5]; Concentration 0.75): 5 and 3 and 4
- prop_P3 ([5]; Concentration 0.75): 0.03257 and 0.04317 and 0.03038
- prop_P4 ([5]; Concentration 0.75): 0.003081 and 0.007489 and 0.005724
- prop_P5 ([5]; Concentration 0.75): 0.002201 and 0.001322 and 0.001761
- prop_P2 ([5]; Concentration 0.75): 0.9621 (2×) and 0.948
- avgprop_P3 ([5]; Concentration 1.5): 0.08725
- avgprop_P4 ([5]; Concentration 1.5): 0.1027
- avgprop_P5 ([5]; Concentration 1.5): 0.03439
- avgprop_P2 ([5]; Concentration 1.5): 0.7757
- P2_viable ([5]; Concentration 1.5): 1282 and 1336 and 510
- P3_AnnexinPos_PIneg ([5]; Concentration 1.5): 163 and 159 and 47
- P4_PIpos_AnnexinNeg ([5]; Concentration 1.5): 201 and 160 and 62
- P5_PIpos_Annexinpos ([5]; Concentration 1.5): 59 and 56 and 23
- prop_P3 ([5]; Concentration 1.5): 0.0956 and 0.09293 and 0.07321
- prop_P4 ([5]; Concentration 1.5): 0.1179 and 0.09351 and 0.09657
- prop_P5 ([5]; Concentration 1.5): 0.0346 and 0.03273 and 0.03583
- prop_P2 ([5]; Concentration 1.5): 0.7519 and 0.7808 and 0.7944
- change of potency upon doxycycline induction ([6]; dox 0, 100, 1000 ng/mL, 4 days): without impacting the potency
- mean_norm (normalized viability) ([6]; dox 0, Concentration 0.0390625): 0.9266
- mean_norm (normalized viability) ([6]; dox 0, Concentration 0.078125): 0.8991
- mean_norm (normalized viability) ([6]; dox 0, Concentration 0.15625): 0.8734
- mean_norm (normalized viability) ([6]; dox 0, Concentration 0.3125): 0.835
- mean_norm (normalized viability) ([6]; dox 0, Concentration 0.625): 0.7837
- mean_norm (normalized viability) ([6]; dox 0, Concentration 1.25): 0.5152
- mean_norm (normalized viability) ([6]; dox 0, Concentration 2.5): 0.218
- mean_norm (normalized viability) ([6]; dox 0, Concentration 5): 0.1689
- mean_norm (normalized viability) ([6]; dox 0, Concentration 10): 0.1644
- mean_norm (normalized viability) ([6]; dox 100, Concentration 0.3125): 0.8537
- mean_norm (normalized viability) ([6]; dox 100, Concentration 0.625): 0.6735
- mean_norm (normalized viability) ([6]; dox 100, Concentration 1.25): 0.3823
- mean_norm (normalized viability) ([6]; dox 100, Concentration 2.5): 0.2022
- mean_norm (normalized viability) ([6]; dox 100, Concentration 5): 0.161
- mean_norm (normalized viability) ([6]; dox 100, Concentration 10): 0.1435
- viability ([7]; dox 100, Concentration 0.0390625): 99%
- viability ([7]; dox 100, Concentration 0.078125): 86.5%
- viability ([7]; dox 100, Concentration 0.15625): 88.6%
- viability ([7]; dox 1000, Concentration 0.0390625): 97.3%
- viability ([7]; dox 1000, Concentration 0.078125): 89.3%
- viability ([7]; dox 1000, Concentration 0.15625): 88.7%
- viability ([7]; dox 1000, Concentration 0.3125): 83%
- viability ([7]; dox 1000, Concentration 0.625): 74.2%
- viability ([7]; dox 1000, Concentration 1.25): 48.7%
- viability ([7]; dox 1000, Concentration 2.5): 18.6%
- viability ([7]; dox 1000, Concentration 5): 14.5%
- viability ([7]; dox 1000, Concentration 10): 10.7%
